Results taken from patent US7157430B2, “(Substituted)acyl dipeptidyl inhibitors of the ICE/CED-3 family of cysteine proteases” (Idun Pharmaceuticals, Inc., priority 1998, dated 2007).
Read-outs that look alike come from different tables or passages of the source. Where a SMILES comes first, the peptide text is derived from it. The star is where a group is joined. Cbz = O=C(OCc1ccccc1)*

Experiments:
Format in all cases: biochemical
mICE = biological target: T1, mICE (Mus musculus, UniProt P29452); experiment: Fluorescence enzyme assay, IC50 determination, ICE
T1 sequence (P29452 123-296 limits assumed): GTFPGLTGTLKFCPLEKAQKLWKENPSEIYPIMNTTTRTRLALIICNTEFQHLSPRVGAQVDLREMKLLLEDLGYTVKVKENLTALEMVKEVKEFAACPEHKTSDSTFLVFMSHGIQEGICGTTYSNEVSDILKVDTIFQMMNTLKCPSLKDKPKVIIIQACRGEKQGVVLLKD
T1 sequence (P29452 315-402 limits assumed): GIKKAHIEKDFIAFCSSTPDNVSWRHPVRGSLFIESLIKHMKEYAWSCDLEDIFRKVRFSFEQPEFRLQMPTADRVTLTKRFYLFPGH
Description: (§1) Fluorescence enzyme assays detecting the activity of the compounds of Formula 1 utilizing the recombinant ICE and CPP32 enzymes are performed essentially according to Thornberry et al. (Nature, 356:768:774 (1992)) and Nicholson et al. (Nature, 376:37–43 (1995)) respectively, (herein incorporated by reference) in 96 well microtiter plates. The substrate is Acetyl-Tyr-Val-Ala-Asp-amino-4-methylcoumarin (AMC) for the ICE assay and Acetyl-Asp-Glu-Val-Asp-amino-4-methylcoumarin for the CPP32, Mch2, Mch3 and Mch5 assays. Enzyme reactions are run in ICE buffer (25 mM HEPES, 1 mM EDTA, 0.1% CHAPS, 10% sucrose, pH 7.5) containing 2 mM DTT at room temperature in duplicate.
(§2) The enzyme and the compound of Formula I to be assayed are allowed to preincubate in the microtitre plate wells for 30 minutes at room temperature prior to the addition of substrate to initiate the reaction. Fluorescent AMC product formation is monitored for one hour at room temperature by measuring the fluorescence emission at 460 nm using an excitation wavelength of 360 nm. The fluorescence change in duplicate (control) wells are averaged and the mean values are plotted as a function of inhibitor concentration to determine the inhibitor concentration producing 50% inhibition (IC50). The results of this assay are set forth below in Table 1 and in Table 3 (for Table 3, see Examples 11 through 52).
(§3) The reference compound for this assay was Cbz-ValAlaAsp-H and the values are denoted in Table 1 as “Reference”.

CPP32 = biological target: T2, CPP32 (Homo sapiens, UniProt P42574); experiment: Fluorescence enzyme assay, IC50 determination, CPP32
T2 sequence (P42574 29-175 limits assumed): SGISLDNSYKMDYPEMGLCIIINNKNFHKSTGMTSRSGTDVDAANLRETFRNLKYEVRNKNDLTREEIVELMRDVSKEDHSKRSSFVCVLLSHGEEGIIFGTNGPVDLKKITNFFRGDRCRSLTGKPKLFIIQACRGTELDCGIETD
T2 sequence (P42574 176-277 limits assumed): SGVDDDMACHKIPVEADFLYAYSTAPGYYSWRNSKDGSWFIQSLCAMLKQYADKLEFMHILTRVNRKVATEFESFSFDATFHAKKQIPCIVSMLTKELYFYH
Description: as §1, §2, §3

MCH-2 = biological target: T3, MCH-2 (Homo sapiens, UniProt P55212); experiment: Fluorescence enzyme assay, IC50 determination, Mch2
T3 sequence (P55212 24-179 limits assumed): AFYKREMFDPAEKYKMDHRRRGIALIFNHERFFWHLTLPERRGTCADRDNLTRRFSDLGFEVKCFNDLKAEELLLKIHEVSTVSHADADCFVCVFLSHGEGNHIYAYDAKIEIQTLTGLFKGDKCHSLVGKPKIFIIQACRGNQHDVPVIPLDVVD
T3 sequence (P55212 194-293 limits assumed): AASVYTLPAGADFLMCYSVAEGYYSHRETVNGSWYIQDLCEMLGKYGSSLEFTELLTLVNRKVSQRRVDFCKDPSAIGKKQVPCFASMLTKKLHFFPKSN
Description: as §1, §2, §3

MCH-3 = biological target: T4, MCH-3 (Homo sapiens, UniProt P55210); experiment: Fluorescence enzyme assay, IC50 determination, Mch3
T4 sequence (P55210 24-198 limits assumed): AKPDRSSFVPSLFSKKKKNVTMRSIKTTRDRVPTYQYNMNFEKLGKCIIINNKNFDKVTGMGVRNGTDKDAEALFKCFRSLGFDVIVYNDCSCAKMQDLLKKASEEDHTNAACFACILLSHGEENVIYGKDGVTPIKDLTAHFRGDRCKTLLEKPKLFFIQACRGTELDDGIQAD
T4 sequence (P55210 207-303 limits assumed): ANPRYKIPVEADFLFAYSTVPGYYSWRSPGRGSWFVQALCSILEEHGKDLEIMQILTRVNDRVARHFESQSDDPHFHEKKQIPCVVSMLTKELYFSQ
Description: as §1, §2, §3

MCH-5 = MCH-5 (Homo sapiens, UniProt Q14790); experiment: Fluorescence enzyme assay, IC50 determination, Mch5
Sequence of MCH-5 (Q14790 217-374 limits assumed, species assumed): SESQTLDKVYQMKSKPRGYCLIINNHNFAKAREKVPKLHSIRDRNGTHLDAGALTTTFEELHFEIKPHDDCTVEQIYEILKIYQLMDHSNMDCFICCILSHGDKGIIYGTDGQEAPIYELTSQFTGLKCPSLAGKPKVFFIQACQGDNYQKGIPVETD
Sequence of MCH-5 (Q14790 385-479 limits assumed, species assumed): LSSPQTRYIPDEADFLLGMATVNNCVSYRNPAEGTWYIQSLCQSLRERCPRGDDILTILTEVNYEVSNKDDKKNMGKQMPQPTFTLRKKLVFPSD
Description: as §1, §2, §3

[1] = recombinant enzyme, Ac-YVAD-AMC substrate, 30 min preincubation, room temperature, read-out: mICE IC50
[2] = recombinant enzyme, Ac-DEVD-AMC substrate, 30 min preincubation, room temperature, read-out: CPP32 IC50
[3] = Ac-DEVD-AMC substrate, 30 min preincubation, room temperature, read-out: MCH-2 IC50
[4] = Ac-DEVD-AMC substrate, 30 min preincubation, room temperature, read-out: MCH-3 IC50
[5] = Ac-DEVD-AMC substrate, 30 min preincubation, room temperature, read-out: MCH-5 IC50
[6] = Table 3, method of Preparation 3A, read-out: mICE I50
[7] = Table 3, method of Preparation 3A, read-out: CPP32 I50
[8] = Table 3, method of Preparation 3A, read-out: MCH2 I50
[9] = Table 3, method of Preparation 3A, read-out: MCH3 I50
[10] = Table 3, method of Preparation 3A, read-out: MCH5 I50

Row | IC50 (mICE; [1]) | IC50 (CPP32; [2]) | IC50 (MCH-2; [3]) | IC50 (MCH-3; [4]) | IC50 (MCH-5; [5]) | IC50 (mICE; [6]) | IC50 (CPP32; [7]) | IC50 (MCH-2; [8]) | IC50 (MCH-3; [9]) | IC50 (MCH-5; [10]) | SMILES
1 |  |  |  |  |  | 2.57 µM | 0.162 µM | 28.6 µM | 2.31 µM | 4.95 µM | CC(C)C[C@H](NC(=O)COc1ccc2c(c1)CCCC2)C(=O)N[C@H](C=O)CC(=O)O [Example 52]
2 |  |  |  |  |  | 2.21 µM | 0.545 µM | 21.2 µM | 6.82 µM | 9.28 µM | CC(C)C[C@H](NC(=O)COc1ccc(Oc2ccccc2)cc1)C(=O)N[C@H](C=O)CC(=O)O [Example 44]
3 | 0.064 µM | 47 µM | > 10 µM | > 10 µM | 2.96 µM |  |  |  |  |  | CC(C)[C@H](NC(=O)OCc1ccccc1)C(=O)N[C@@H](C)C(=O)N[C@H](C=O)CC(=O)O [reference, Cbz-ValAlaAsp-H, reference compound] (Cbz-Val-Ala-Asp-aldehyde)
4 |  |  |  |  |  | 20.4 µM | 1.77 µM | > 10 µM | 8.27 µM | > 10 µM | CC(C)C[C@H](NC(=O)C(C)Oc1ccccc1)C(=O)N[C@H](C=O)CC(=O)O (stereo partly shown) [Example 36]
5 |  |  |  |  |  | 1.8 µM | 0.346 µM | 18.9 µM | 4.41 µM | 4.72 µM | CC(C)C[C@H](NC(=O)COc1ccc(Cc2ccccc2)cc1)C(=O)N[C@H](C=O)CC(=O)O [Example 43]
6 |  |  |  |  |  | 1.9 µM | 0.763 µM | 20.5 µM | 12 µM | 7.53 µM | CC(C)C[C@H](NC(=O)COc1ccc(-c2ccccc2)cc1)C(=O)N[C@H](C=O)CC(=O)O [Example 41]

The next lines start with the molecule.

Row | SMILES | IC50 (mICE; [1]) | IC50 (CPP32; [2]) | IC50 (MCH-2; [3]) | IC50 (MCH-3; [4]) | IC50 (MCH-5; [5]) | IC50 (mICE; [6]) | IC50 (CPP32; [7]) | IC50 (MCH-2; [8]) | IC50 (MCH-3; [9]) | IC50 (MCH-5; [10])
7 | CC(C)[C@H](NC(=O)COc1cc2ccccc2cc1C(=O)O)C(=O)N[C@H](C=O)CC(=O)O [Example 7, (3S)-3-[N-((3′-Carboxy-2′-Naphthyloxy)Acetyl)Valinyl]Amino-4-Oxobutanoic Acid] | 1.89 µM | 0.731 µM | 1.9 µM | 17 µM | 0.2 µM |  |  |  |  | 
8 | CC(C)C[C@H](NC(=O)CCC(=O)c1cccc2ccccc12)C(=O)N[C@H](C=O)CC(=O)O [Example 19] |  |  |  |  |  | 0.408 µM | 0.967 µM | 11.8 µM | 11.3 µM | 11.2 µM
9 | CC(C)C[C@H](NC(=O)CCC(=O)c1ccc2ccccc2c1)C(=O)N[C@H](C=O)CC(=O)O [Example 21] |  |  |  |  |  | 0.543 µM | 1.42 µM | 10.3 µM | 7.43 µM | 5.23 µM
10 | Cc1ccc2ccccc2c1OCC(=O)N[C@@H](CC(C)C)C(=O)N[C@H](C=O)CC(=O)O [Example 26] |  |  |  |  |  | 0.843 µM | 0.375 µM | 32.4 µM | 4.16 µM | 4.14 µM
11 | CC(C)C[C@H](NC(=O)COc1ccc2ccccc2c1)C(=O)N[C@H](C=O)CC(=O)O [Example 13] |  |  |  |  |  | 2.57 µM | 0.944 µM | 18.6 µM | 8.87 µM | > 10 µM
12 | CC(C)C[C@H](NC(=O)C(C)CC(=O)c1cccc2ccccc12)C(=O)N[C@H](C=O)CC(=O)O (stereo partly shown) [Example 20] |  |  |  |  |  | 4.55 µM | 9.88 µM | 24.9 µM | 29.8 µM | 3.25 µM
13 | CC(C)C[C@H](NC(=O)COc1cccc2c1OC(C)(C)C2)C(=O)N[C@H](C=O)CC(=O)O [Example 10, (3S)-3-[N-((2,3-Dihydro-2,2-Dimethyl-Benzofuranyloxy)Acetyl)Leucinyl]Amino-4-Oxobutanoic Acid] | 6.34 µM | 0.241 µM | 13.1 µM | 2.32 µM | 6.34 µM |  |  |  |  | 
14 | CC(C)[C@H](NC(=O)COc1c(C(=O)O)ccc2ccccc12)C(=O)N[C@H](C=O)CC(=O)O [Example 6, (3S)-3-[N-((2′-Carboxy-1′-Naphthyloxy)Acetyl)Valinyl]Amino-4-Oxobutanoic Acid] | 0.385 µM | 0.054 µM | 1.43 µM | 1.65 µM | 0.048 µM |  |  |  |  | 
15 | CC(C)C[C@H](NC(=O)CCSc1ccc2ccccc2c1)C(=O)N[C@H](C=O)CC(=O)O [Example 25] |  |  |  |  |  | 0.611 µM | 0.837 µM | 1.62 µM | 5.89 µM | 15 µM
16 | COc1ccc(OCC(=O)N[C@@H](CC(C)C)C(=O)N[C@H](C=O)CC(=O)O)c2ccccc12 [Example 27] |  |  |  |  |  | 0.831 µM | 0.263 µM | 22.6 µM | 4.08 µM | 1.45 µM
17 | CC(C)C[C@H](NC(=O)COc1cccc2cnccc12)C(=O)N[C@H](C=O)CC(=O)O [Example 33] |  |  |  |  |  | 5.14 µM | 0.407 µM | 42.7 µM | 3.48 µM | 3.64 µM
18 | CC(C)C[C@H](NC(=O)COc1nccc2ccccc12)C(=O)N[C@H](C=O)CC(=O)O [Example 30] |  |  |  |  |  | 44.2 µM | 1.57 µM | > 50 µM | 34.7 µM | > 50 µM
19 | CC(C)C[C@H](NC(=O)COc1cccc2ccccc12)C(=O)N[C@H](C=O)CC(=O)O [Example 12] |  |  |  |  |  | 0.597 µM | 0.139 µM | 0.846 µM | 1.95 µM | 0.821 µM
20 | CC(C)C[C@H](NC(=O)CCSc1cccc2ccccc12)C(=O)N[C@H](C=O)CC(=O)O [Example 24] |  |  |  |  |  | 0.563 µM | 0.412 µM | 2.72 µM | 3.6 µM | 16.3 µM
